Laboratory results taken from the NIST ThermoML archive (doi:10.1016/j.jct.2018.12.014).
± gives the expanded uncertainty stated by the source.

Experiments:
[1] = refractive index (Na D-line) (dimensionless); wn = mass fraction of the nth substance listed; details: 101 kPa, Liquid, Standard Abbe refractometry
[2] = wn = mass fraction of the nth substance listed; details: 101 kPa, Liquid, Vibrating tube method

C[P+](c1ccccc1)(c1ccccc1)c1ccccc1.[Br-] [methyltriphenylphosphonium bromide] + CN(CCO)CCO
refractive index ([1]; 293.15 K, w1 = 0.1578): 1.49579 ± 0.0039
refractive index ([1]; 293.15 K, w1 = 0.2306): 1.50867 ± 0.0038
refractive index ([1]; 293.15 K, w1 = 0.2998): 1.52077 ± 0.0038
refractive index ([1]; 298.15 K, w1 = 0.1578): 1.49402 ± 0.0038
refractive index ([1]; 298.15 K, w1 = 0.2306): 1.50694 ± 0.0038
refractive index ([1]; 298.15 K, w1 = 0.2998): 1.51904 ± 0.0038
refractive index ([1]; 303.15 K, w1 = 0.1578): 1.49224 ± 0.0038
refractive index ([1]; 303.15 K, w1 = 0.2306): 1.50517 ± 0.0038
refractive index ([1]; 303.15 K, w1 = 0.2998): 1.51732 ± 0.0038
refractive index ([1]; 308.15 K, w1 = 0.1578): 1.49037 ± 0.0038
refractive index ([1]; 308.15 K, w1 = 0.2306): 1.5034 ± 0.0038
refractive index ([1]; 308.15 K, w1 = 0.2998): 1.51557 ± 0.0038
refractive index ([1]; 313.15 K, w1 = 0.1578): 1.48865 ± 0.0038
refractive index ([1]; 313.15 K, w1 = 0.2306): 1.50162 ± 0.0038
refractive index ([1]; 313.15 K, w1 = 0.2998): 1.51383 ± 0.0038
refractive index ([1]; 318.15 K, w1 = 0.1578): 1.4869 ± 0.0038
refractive index ([1]; 318.15 K, w1 = 0.2306): 1.49961 ± 0.0038
refractive index ([1]; 318.15 K, w1 = 0.2998): 1.51212 ± 0.0038
refractive index ([1]; 323.15 K, w1 = 0.1578): 1.48502 ± 0.0038
refractive index ([1]; 323.15 K, w1 = 0.2306): 1.49793 ± 0.0038
refractive index ([1]; 323.15 K, w1 = 0.2998): 1.5103 ± 0.0038
refractive index ([1]; 328.15 K, w1 = 0.1578): 1.48313 ± 0.0038
refractive index ([1]; 328.15 K, w1 = 0.2306): 1.49584 ± 0.0038
refractive index ([1]; 328.15 K, w1 = 0.2998): 1.5083 ± 0.0038
refractive index ([1]; 333.15 K, w1 = 0.1578): 1.48114 ± 0.0038
refractive index ([1]; 333.15 K, w1 = 0.2306): 1.4942 ± 0.0038
refractive index ([1]; 333.15 K, w1 = 0.2998): 1.50644 ± 0.0038
refractive index ([1]; 338.15 K, w1 = 0.1578): 1.47935 ± 0.0038
refractive index ([1]; 338.15 K, w1 = 0.2306): 1.49244 ± 0.0038
refractive index ([1]; 338.15 K, w1 = 0.2998): 1.50466 ± 0.0038
refractive index ([1]; 343.15 K, w1 = 0.1578): 1.47746 ± 0.0038
refractive index ([1]; 343.15 K, w1 = 0.2306): 1.49064 ± 0.0038
refractive index ([1]; 343.15 K, w1 = 0.2998): 1.50288 ± 0.0038
mass density ([2]; 293.15 K, w1 = 0.1578): 1086.84 ± 8.5 kg/m3
mass density ([2]; 293.15 K, w1 = 0.2306): 1106.7 ± 8.4 kg/m3
mass density ([2]; 293.15 K, w1 = 0.2998): 1124.09 ± 8.3 kg/m3
mass density ([2]; 298.15 K, w1 = 0.1578): 1083.1 ± 8.5 kg/m3
mass density ([2]; 298.15 K, w1 = 0.2306): 1102.99 ± 8.4 kg/m3
mass density ([2]; 298.15 K, w1 = 0.2998): 1120.4 ± 8.2 kg/m3
mass density ([2]; 303.15 K, w1 = 0.1578): 1079.34 ± 8.5 kg/m3
mass density ([2]; 303.15 K, w1 = 0.2306): 1099.26 ± 8.3 kg/m3
mass density ([2]; 303.15 K, w1 = 0.2998): 1116.71 ± 8.2 kg/m3
mass density ([2]; 308.15 K, w1 = 0.1578): 1075.59 ± 8.4 kg/m3
mass density ([2]; 308.15 K, w1 = 0.2306): 1095.54 ± 8.3 kg/m3
mass density ([2]; 308.15 K, w1 = 0.2998): 1113.03 ± 8.2 kg/m3
mass density ([2]; 313.15 K, w1 = 0.1578): 1071.84 ± 8.4 kg/m3
mass density ([2]; 313.15 K, w1 = 0.2306): 1091.82 ± 8.3 kg/m3
mass density ([2]; 313.15 K, w1 = 0.2998): 1109.36 ± 8.2 kg/m3
mass density ([2]; 318.15 K, w1 = 0.1578): 1068.08 ± 8.4 kg/m3
mass density ([2]; 318.15 K, w1 = 0.2306): 1088.09 ± 8.3 kg/m3
mass density ([2]; 318.15 K, w1 = 0.2998): 1105.69 ± 8.1 kg/m3
mass density ([2]; 323.15 K, w1 = 0.1578): 1064.32 ± 8.3 kg/m3
mass density ([2]; 323.15 K, w1 = 0.2306): 1084.36 ± 8.2 kg/m3
mass density ([2]; 323.15 K, w1 = 0.2998): 1102.01 ± 8.1 kg/m3
mass density ([2]; 328.15 K, w1 = 0.1578): 1060.54 ± 8.3 kg/m3
mass density ([2]; 328.15 K, w1 = 0.2306): 1080.63 ± 8.2 kg/m3
mass density ([2]; 328.15 K, w1 = 0.2998): 1098.34 ± 8.1 kg/m3
mass density ([2]; 333.15 K, w1 = 0.1578): 1056.77 ± 8.3 kg/m3
mass density ([2]; 333.15 K, w1 = 0.2306): 1076.9 ± 8.2 kg/m3
mass density ([2]; 333.15 K, w1 = 0.2998): 1094.66 ± 8.1 kg/m3
mass density ([2]; 338.15 K, w1 = 0.1578): 1052.98 ± 8.3 kg/m3
mass density ([2]; 338.15 K, w1 = 0.2306): 1073.17 ± 8.2 kg/m3
mass density ([2]; 338.15 K, w1 = 0.2998): 1090.99 ± 8 kg/m3
mass density ([2]; 343.15 K, w1 = 0.1578): 1049.19 ± 8.2 kg/m3
mass density ([2]; 343.15 K, w1 = 0.2306): 1069.43 ± 8.1 kg/m3
mass density ([2]; 343.15 K, w1 = 0.2998): 1087.31 ± 8 kg/m3
mass density ([2]; 348.15 K, w1 = 0.1578): 1045.47 ± 8.2 kg/m3
mass density ([2]; 348.15 K, w1 = 0.2306): 1065.72 ± 8.1 kg/m3
mass density ([2]; 348.15 K, w1 = 0.2998): 1083.63 ± 8 kg/m3
mass density ([2]; 353.15 K, w1 = 0.1578): 1041.65 ± 8.2 kg/m3
mass density ([2]; 353.15 K, w1 = 0.2306): 1062.05 ± 8.1 kg/m3
mass density ([2]; 353.15 K, w1 = 0.2998): 1080.06 ± 8 kg/m3
